Measurements published in ChEMBL document CHEMBL1135216, “New 2-(1-adamantylcarbonyl)pyridine and 1-acetyladamantane thiosemicarbazones-thiocarbonohydrazones: cell growth inhibitory, antiviral and antimicrobial activity evaluation” (Bioorg Med Chem Lett, 2002).
Converted amounts (≈) assume the structure as drawn.

Key:
HEL [1] = test: Tested for antiviral activity against thymidine kinase deficient Varicella zoster virus in human embryonic lung fibroblasts; format: functional
Escherichia coli = test: Tested for the antimicrobial activity against Escherichia coli ATCC 25922; format: functional
K562 [2] = test: Tested for the inhibitory concentration against cell growth of human leukemic cell line K562; format: functional
HEL [3] = test: Tested for antiviral activity against human cytomegalovirus (AD-169) in human embryonic lung fibroblasts; format: functional
E6SM [4] = test: Antiviral activity against thymidine kinase-deficient (TK-HSV-1)virus in E6SM cell line(human embryonic skin-muscle fibroblasts); format: functional
MT4 [5] = test: Tested for effective concentration required to protect MT-4 cells against the cytopathicity of HIV-2(ROD); format: functional, cell-based; settings: Homo sapiens
MT4 [6] = test: Tested for cytotoxic concentration required to reduce the viability of MT-4 cells by 50%; format: functional, cell-based; settings: Homo sapiens, read-out: EC50 (the source's name)
E6SM [7] = test: Tested for cytotoxic activity in human embryonic skin muscle fibroblast (E6SM); format: functional; settings: Muscle tissue
CCRF-CEM [8] = test: Tested for the inhibitory concentration against cell growth of human leukemic cell line CCRF-CEM; format: functional
CCRF-CEM [9] = test: Tested for the concentration required to reduce the viability of leukemia cells by 50% against cell growth of T cell leukemia cell line CCRF-CEM using MTT assay; format: functional; settings: Homo sapiens
HeLa [10] = test: Tested for antiviral activity against coxsackie-B4 virus in human epithelial cell line; format: functional
HuT78 [11] = test: Tested for the concentration required to reduce the viability of leukemia cells by 50% against cell growth of HuT78 T lymphoma using MTT assay; format: functional; settings: Homo sapiens
K562 [12] = test: Tested for the inhibitory concentration against cell growth of K562 chronic myeloid leukemia using MTT assay; format: functional; settings: Homo sapiens
MOLT-4 [13] = test: Tested for the inhibitory concentration against cell growth of Tcell leukemic cell line MOLT-4 using MTT assay; format: functional; settings: Homo sapiens
Vero [14] = test: Tested for antiviral activity against Sindbis virus in African green monkey kidney cell (Vero); format: functional; settings: Chlorocebus sabaeus
HL-60 [15] = test: Tested for the inhibitory concentration against cell growth of HL60 acute myeloid leukemia using MTT assay; format: functional; settings: Homo sapiens
HuT78 [16] = test: Tested for the inhibitory concentration against cell growth of HuT78 T lymphoma using MTT assay; format: functional; settings: Homo sapiens
E6SM [17] = test: Tested for antiviral activity against herpes simplex virus type 1(KOS) in E6SM cell line(human embryonic skin-muscle fibroblasts); format: functional
HL-60 [18] = test: Tested for the concentration required to reduce the viability of leukemia cells by 50% against cell growth of HL60 acute myeloid leukemia using MTT assay; format: functional; settings: Homo sapiens, read-out: LC50 (the source's name)
MOLT-4 [19] = test: Tested for the inhibitory concentration against cell growth of human leukemic cell line MOLT-4; format: functional
Staphylococcus aureus = test: Tested for the antimicrobial activity against Staphylococcus aureus ATCC 6538; format: functional
HEL [20] = test: Tested for antiviral activity against thymidine kinase wild type Varicella zoster virus in human embryonic lung fibroblast; format: functional
HL-60 [21] = test: Tested for the inhibitory concentration against cell growth of human leukemic cell line HL60; format: functional
RPMI-8226 [22] = test: Tested for the inhibitory concentration against cell growth of […] multiple myeloma using MTT assay; format: functional; settings: Homo sapiens
Klebsiella pneumoniae = test: Tested for the antimicrobial activity against Klebsiella pneumoniae ATCC 13883; format: functional
HuT78 [23] = test: Tested for the inhibitory concentration against cell growth of human leukemic cell line HuT78; format: functional
E6SM [24] = test: Tested for antiviral activity against VSV-virus in human embryonic skin muscle fibroblasts; format: functional; settings: Muscle tissue
MOLT-4 [25] = test: Tested for the concentration required to reduce the viability of leukemia cells by 50% against cell growth of T cell leukemia cell line MOLT-4 using MTT assay; format: functional; settings: Homo sapiens
RPMI-8226 [26] = test: Tested for the concentration required to reduce the viability of leukemia cells by 50% against cell growth of RPMI8226 multiple myeloma using MTT assay; format: functional; settings: Homo sapiens, read-out: LC50 (the source's name)
CCRF-CEM [27] = test: Tested for the inhibitory concentration against cell growth of Tcell leukemic cell line CCRF-CEM using MTT assay; format: functional; settings: Homo sapiens
[28] = test system: Staphylococcus epidermidis; test: Tested for the antimicrobial activity against Staphylococcus epidermidis ATCC 12228; format: functional
RPMI-8226 [29] = test: Tested for the inhibitory concentration against cell growth of human leukemic cell line RPMI8226; format: functional
HEL [30] = test: Tested for cytotoxic activity in human embryonic lung fibroblast (HEL); format: functional
E6SM [31] = test: Tested for antiviral activity against thymidine kinase-deficient (TK-HSV-2G) virus in E6SM cell line(human embryonic skin-muscle fibroblasts); format: functional
Staphylococcus hominis = test: Tested for the antimicrobial activity against Staphylococcus hominis ATCC 27844; format: functional
Vero [32] = test: Tested for antiviral activity against coxsackie B-4 virus in African green monkey kidney cell (Vero); format: functional; settings: Chlorocebus sabaeus
Vero [33] = test: Tested for antiviral activity against Punta toro virus in African green monkey kidney cell (Vero); format: functional; settings: Chlorocebus sabaeus
Vero [34] = test: Tested for antiviral activity against Reo-1 virus in African green monkey kidney cell (Vero); format: functional; settings: Chlorocebus sabaeus
Vero [35] = test: Tested for cytotoxic activity in African green monkey kidney cells (Vero); format: functional; settings: Chlorocebus sabaeus
HeLa [36] = test: The compound was tested for antiviral activity against VSV-virus in human epithelial cells; format: functional
Vero [37] = test: Tested for antiviral activity against parainfluenza virus in african green monkey kidney cell (Vero); format: functional; settings: Chlorocebus sabaeus
HeLa [38] = test: Tested for cytotoxic activity in human epithelial cell line (HeLa); format: functional
MT4 [39] = test: Tested for effective concentration required to protect MT-4 cells against the cytopathicity of HIV-1(IIIB); format: functional; settings: Homo sapiens, read-out: LC50 (the source's name)
K562 [40] = test: Tested for the concentration required to reduce the viability of leukemia cells by 50% against cell growth of K562 chronic myeloid leukemia using MTT assay; format: functional; settings: Homo sapiens, read-out: LC50 (the source's name)
E6SM [41] = test: Tested for antiviral activity against vaccinia virus in human embryonic skin muscle fibroblast; format: functional; settings: Muscle tissue

C/C(=N/N=C(/S)NN)C12CC3CC(CC(C3)C1)C2
MIC (HEL [1]): > 20 µg/mL | MIC (Escherichia coli): > 3760 µg/mL | GI50 (K562 [2]): 14.7 µM | MIC (HEL [3]): > 5 µg/mL | MIC (E6SM [4]): > 16 µg/mL | EC50 (MT4 [5]): > 7 µM | CC50 (MT4 [6]): 7.1 µM | MCC (E6SM [7]): > 80 µg/mL | GI50 (CCRF-CEM [8]): 36.8 µM | TGI (CCRF-CEM [9]): 100 µM | MIC (HeLa [10]): > 16 µg/mL | TGI (HuT78 [11]): 100 µM | TGI (K562 [12]): 68.4 µM | TGI (MOLT-4 [13]): 100 µM | MIC (Vero [14]): > 80 µg/mL | TGI (HL-60 [15]): 92 µM | TGI (HuT78 [16]): 100 µM | MIC (E6SM [17]): > 16 µM | CC50 (HL-60 [18]): 100 µM | GI50 (MOLT-4 [19]): 22.2 µM | MIC (Staphylococcus aureus): > 3760 µg/mL | MIC (HEL [20]): 10.5 µg/mL (≈ 39.4 µM) | GI50 (HL-60 [21]): 48.7 µM | TGI (RPMI-8226 [22]): 100 µM | MIC (Klebsiella pneumoniae): > 3760 µg/mL | GI50 (HuT78 [23]): 20.5 µM | MIC (E6SM [24]): > 16 µg/mL | TGI (MOLT-4 [25]): 100 µM | CC50 (RPMI-8226 [26]): 100 µM | TGI (CCRF-CEM [27]): 100 µM | MIC [28]: > 3760 µg/mL | GI50 (RPMI-8226 [29]): 94.2 µM | MCC (HEL [30]): > 20 µg/mL | MIC (E6SM [31]): > 16 µg/mL | MIC (Staphylococcus hominis): > 3760 µg/mL | MIC (Vero [32]): > 80 µg/mL | MIC (Vero [33]): > 80 µg/mL | MIC (Vero [34]): > 80 µg/mL | MCC (Vero [35]): 80 µg/mL | MIC (HeLa [36]): > 16 µg/mL | MIC (Vero [37]): > 80 µg/mL | MCC (HeLa [38]): 80 µg/mL | EC50 (MT4 [39]): > 7 µM | CC50 (K562 [40]): 100 µM | MIC (E6SM [41]): > 16 µg/mL

C/C(=N/N=C(/S)N/N=C(\S)c1ccc(Cl)cc1Cl)C12CC3CC(CC(C3)C1)C2
MIC (HEL [1]): > 2 µg/mL | MIC (Escherichia coli): > 2130 µg/mL | GI50 (K562 [2]): 24.7 µM | MIC (HEL [3]): > 2 µg/mL | MIC (E6SM [4]): 9.6 µg/mL (≈ 21.1 µM) | EC50 (MT4 [5]): > 2 µM | CC50 (MT4 [6]): 2.4 µM | MCC (E6SM [7]): 80 µg/mL | GI50 (CCRF-CEM [8]): 5.7 µM | TGI (CCRF-CEM [9]): 100 µM | MIC (HeLa [10]): > 3.2 µg/mL | TGI (HuT78 [11]): 100 µM | TGI (K562 [12]): 100 µM | TGI (MOLT-4 [13]): 100 µM | MIC (Vero [14]): > 3.2 µg/mL | TGI (HL-60 [15]): 6.2 µM | TGI (HuT78 [16]): 100 µM | MIC (E6SM [17]): > 16 µg/mL | CC50 (HL-60 [18]): 10 µM | GI50 (MOLT-4 [19]): 32.4 µM | MIC (Staphylococcus aureus): 133 µg/mL (≈ 292 µM) | MIC (HEL [20]): > 2 µg/mL | GI50 (HL-60 [21]): 2.4 µM | TGI (RPMI-8226 [22]): 29.3 µM | MIC (Klebsiella pneumoniae): > 2130 µg/mL | GI50 (HuT78 [23]): 8.1 µM | MIC (E6SM [24]): > 16 µg/mL | TGI (MOLT-4 [25]): 100 µM | CC50 (RPMI-8226 [26]): 100 µM | TGI (CCRF-CEM [27]): 100 µM | MIC [28]: 133 µg/mL (≈ 292 µM) | GI50 (RPMI-8226 [29]): 3.6 µM | MCC (HEL [30]): 5 µg/mL | MIC (E6SM [31]): 9.6 µg/mL (≈ 21.1 µM) | MIC (Staphylococcus hominis): 133 µg/mL (≈ 292 µM) | MIC (Vero [32]): > 3.2 µg/mL | MIC (Vero [33]): > 3.2 µg/mL | MIC (Vero [34]): > 3.2 µg/mL | MCC (Vero [35]): 16 µg/mL | MIC (HeLa [36]): > 3.2 µg/mL | MIC (Vero [37]): > 3.2 µg/mL | MCC (HeLa [38]): 16 µg/mL | EC50 (MT4 [39]): > 2 µM | CC50 (K562 [40]): 100 µM | MIC (E6SM [41]): > 16 µg/mL
